According to patent US20230150986A1, “ANTAGONISTS OF THE MUSCARINIC ACETYLCHOLINE RECEPTOR M4” (Vanderbilt University, priority 2019, published 2023):

Molecular target: T1, Human M4 (Homo sapiens, UniProt P08173)
T1 construct: Human or rat M4 cDNA, along with the chimeric G protein Gq,5, were transfected into Chinese hamster ovary (CHO-K1) cells; expressed in transfected cells; host or cells: CHO-K1 (M4/Gqi5/CHO)
T1 sequence (P08173 1-479): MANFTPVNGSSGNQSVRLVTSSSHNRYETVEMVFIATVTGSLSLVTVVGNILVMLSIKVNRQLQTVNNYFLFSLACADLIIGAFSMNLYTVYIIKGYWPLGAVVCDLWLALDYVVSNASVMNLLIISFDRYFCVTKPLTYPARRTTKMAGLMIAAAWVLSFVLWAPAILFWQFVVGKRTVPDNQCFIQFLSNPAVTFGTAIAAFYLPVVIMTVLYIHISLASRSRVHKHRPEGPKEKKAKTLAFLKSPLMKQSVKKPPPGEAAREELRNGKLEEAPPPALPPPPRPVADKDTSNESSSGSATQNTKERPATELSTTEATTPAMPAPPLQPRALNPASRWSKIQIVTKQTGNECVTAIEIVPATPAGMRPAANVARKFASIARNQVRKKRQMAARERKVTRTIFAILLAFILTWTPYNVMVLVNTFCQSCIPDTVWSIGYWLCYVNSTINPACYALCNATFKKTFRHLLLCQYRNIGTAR
Assay: mAChR M4 cell-based functional assay (calcium flux, decrease of EC80 acetylcholine response)
Conditions: for Human M4 Emin: % ACh maximum at 30 μM; for IC50: CHO-K1 cells with human M4 and Gqi5, EC80 acetylcholine
Description: Human or rat M4 cDNA, along with the chimeric G protein Gq,5, were transfected into Chinese hamster ovary (CHO-K1) cells purchased from the American Type Culture Collection using Lipofectamine2000. M4/Gqi5/CHO cells were grown in Ham's F-12 medium containing 10% heat-inactivated fetal bovine serum (FBS), 20 mM HEPES, 500 μg/mL G^418 sulfate, and 200 μg/mL Hygromycin B.
For high throughput measurement of agonist-evoked increases in intracellular calcium, CHO-K1 cells stably expressing muscarinic receptors were plated in growth medium lacking G418 and hygromycin at 15,000 cells/20 μL/well in Greiner 384-well black-walled, tissue culture (TC)-treated, clear-bottom plates (VWR). Cells were incubated overnight at 37° C. and 5% CO2. The next day, cells were washed using an ELX 405 (BioTek) with assay buffer; the final volume was then aspirated to 20 μL. Next, 20 μL of a 2.3 μM stock of Fluo-4/acetoxymethyl ester (Invitrogen, Carlsbad, Calif.), prepared as a 2.3 mM stock in DMSO and mixed in a 1:1 ratio with 10% (w/v) Pluronic F-127 and diluted in assay buffer, was added to the wells and the cell plates were incubated for 50 min at 37° C. and 5% CO2. Dye was removed by washing with the ELX 405 and the final volume was aspirated to 20 μL. Compound master plates were formatted in a 10 point concentration-response curve (CRC) format (1:3 dilutions) in 100% DMSO with a starting concentration of 10 or 1 mM using a BRAVO liquid handler (Agilent). Test compound CRCs were then transferred to daughter plates (240 nL) using the Echo acoustic plate reformatter (Labcyte, Sunnyvale, Calif.) and then diluted into assay buffer (40 μL) to a 2× stock using a Thermo Fisher Combi (Thermo Fisher Scientific, Waltham, Mass.).
Calcium flux was measured using the Functional Drug Screening System (FDSS) 6000 or 7000 (Hamamatsu Corporation, Tokyo, Japan) as an increase in the fluorescent static ratio. Compounds were applied to cells (20 μL, 2×) using the automated system of the FDSS at 2 seconds into the protocol and the data were collected at 1 Hz. At 143 s, 10 μL of an EC20 concentration of the muscarinic receptor agonist acetylcholine was added (5×), followed by the addition of […] of an EC80 concentration of acetylcholine at the 268 s time point (5×). Agonist activity was analyzed as a concentration-dependent increase in calcium mobilization upon compound addition. Positive allosteric modulator activity was analyzed as a concentration-dependent increase in the EC2o acetylcholine response. Antagonist activity was analyzed as a concentration-dependent decrease in the EC80 acetylcholine response; for the purposes of the tables herein, an IC50 (inhibitory concentration 50) was calculated as a concentration-dependent decrease of the response elicited by an EC80 concentration of acetylcholine. Concentration-response curves were generated using a four-parameter logistical equation in XLFit curve fitting software (IDBS, Bridgewater, N.J.) for Excel (Microsoft, Redmond, Wash.) or Prism (GraphPad Software, Inc., San Diego, Calif.) or the Dotmatics software platform (Dotmatics, Bishop's Stortford, UK).
Compounds were synthesized as described above. Activity (IC50 and Emin) was determined in the mAChR M4 cell-based functional assay as described above and the data are shown in Table 2.

Compound	Human M4 Emin [%]	IC50 [nM]
COc1cccc(CN2C[C@H]3C[C@H](Nc4ccc(-c5cc(F)cc(F)c5F)nn4)C[C@H]3C2)n1 [Compound 17, (3aR,5s,6aS)-2-((6-methoxypyridin-2-yl)methyl)-N-(6-(2,3,5-trifluorophenyl)pyridazin-3-yl)octahydrocyclopenta[c]pyrrol-5-amine]	2	57.1
Cc1ccc(CN2C[C@H]3C[C@H](Nc4ccc(-c5cc(F)cc(F)c5F)nn4)C[C@H]3C2)nc1 [Compound 18, (3aR,5s,6aS)-2-((5-methylpyridin-2-yl)methyl)-N-(6-(2,3,5-trifluorophenyl)pyridazin-3-yl)octahydrocyclopenta[c]pyrrol-5-amine]	4	24.3
Fc1cc(F)c(F)c(-c2ccc(N[C@H]3C[C@@H]4CN(Cc5cc(Cl)ccn5)C[C@@H]4C3)nn2)c1 [Compound 19, (3aR,5s,6aS)-2-((4-chloropyridin-2-yl)methyl)-N-(6-(2,3,5-trifluorophenyl)pyridazin-3-yl)octahydrocyclopenta[c]pyrrol-5-amine]	3	133
Fc1cc(F)c(F)c(-c2ccc(N[C@H]3C[C@@H]4CN(Cc5cccc(Cl)n5)C[C@@H]4C3)nn2)c1 [Compound 20, (3aR,5s,6aS)-2-((6-chloropyridin-2-yl)methyl)-N-(6-(2,3,5-trifluorophenyl)pyridazin-3-yl)octahydrocyclopenta[c]pyrrol-5-amine]	5	111
Fc1ccc(CN2C[C@H]3C[C@H](Nc4ccc(-c5cc(F)cc(F)c5F)nn4)C[C@H]3C2)nc1 [Compound 21, (3aR,5s,6aS)-2-((5-fluoropyridin-2-yl)methyl)-N-(6-(2,3,5-trifluorophenyl)pyridazin-3-yl)octahydrocyclopenta[c]pyrrol-5-amine]	4	36.1
Fc1cc(F)c(F)c(-c2ccc(N[C@H]3C[C@@H]4CN(Cc5cccc(F)n5)C[C@@H]4C3)nn2)c1 [Compound 22, (3aR,5s,6aS)-2-((6-fluoropyridin-2-yl)methyl)-N-(6-(2,3,5-trifluorophenyl)pyridazin-3-yl)octahydrocyclopenta[c]pyrrol-5-amine]	4	79.2
Cc1cccnc1CN1C[C@H]2C[C@H](Nc3ccc(-c4cc(F)cc(F)c4F)nn3)C[C@H]2C1 [Compound 23, (3aR,5s,6aS)-2-((3-methylpyridin-2-yl)methyl)-N-(6-(2,3,5-trifluorophenyl)pyridazin-3-yl)octahydrocyclopenta[c]pyrrol-5-amine]	5	42.4
Fc1cc(F)c(F)c(-c2ccc(N[C@H]3C[C@@H]4CN(C[C@@H]5COCCO5)C[C@@H]4C3)nn2)c1 [Compound 28, (3aR,5s,6aS)-2-(((R)-1,4-dioxan-2-yl)methyl)-N-(6-(2,3,5-trifluorophenyl)pyridazin-3-yl)octahydrocyclopenta[c]pyrrol-5-amine]	4	0.69
Fc1cc(F)c(F)c(-c2ccc(N[C@H]3C[C@@H]4CN(C[C@H]5COCCO5)C[C@@H]4C3)nn2)c1 [Compound 29, (3aR,5s,6aS)-2-(((S)-1,4-dioxan-2-yl)methyl)-N-(6-(2,3,5-trifluorophenyl)pyridazin-3-yl)octahydrocyclopenta[c]pyrrol-5-amine]	3	48.3
Fc1cc(F)c(F)c(-c2ccc(N[C@H]3C[C@@H]4CN(C[C@H]5CCOC5)C[C@@H]4C3)nn2)c1 [Compound 30, (3aR,5s,6aS)-2-(((R)-tetrahydrofuran-3-yl)methyl)-N-(6-(2,3,5-trifluorophenyl)pyridazin-3-yl)octahydrocyclopenta[c]pyrrol-5-amine]	2	63.2
